# ChEMBL document CHEMBL1151550, “High-affinity FKBP-12 ligands derived from (R)-()-carvone. Synthesis and evaluation of FK506 pyranose ring replacements” (Bioorg Med Chem Lett, 1995)
# Target: Peptidyl-prolyl cis-trans isomerase FKBP1A (Homo sapiens, UniProt P62942)
# Assay: Inhibitory activity of compound against FK506 binding protein 12 was determined
# Conditions: read-out: Ki app
# Sequence of Peptidyl-prolyl cis-trans isomerase FKBP1A (P62942 whole entry): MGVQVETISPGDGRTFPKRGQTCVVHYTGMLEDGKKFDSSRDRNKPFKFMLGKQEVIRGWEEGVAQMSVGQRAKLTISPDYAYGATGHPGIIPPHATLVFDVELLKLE
row,SMILES,Ki
1,COC(CC(C)C)[C@@H]1CC[C@@H](C)[C@](O)(C(=O)C(=O)N2CCCC[C@H]2C(=O)OCc2ccccc2)C1 (stereo partly specified),2.8 nM
2,CC(C)[C@@H]1CC[C@@H](C)[C@](O)(C(=O)C(=O)N2CCCC[C@H]2C(=O)OCc2ccccc2)C1,210 nM
3,C/C=C\C(OC)[C@@H]1CC[C@@H](C)[C@](O)(C(=O)C(=O)N2CCCC[C@H]2C(=O)OCc2ccccc2)C1 (stereo partly specified),112 nM
4,COC(C=C(C)C)[C@@H]1CC[C@@H](C)[C@](O)(C(=O)C(=O)N2CCCC[C@H]2C(=O)OCc2ccccc2)C1 (stereo partly specified),68 nM
5,COC[C@@H]1CC[C@@H](C)[C@](O)(C(=O)C(=O)N2CCCC[C@H]2C(=O)OCc2ccccc2)C1,258 nM
6,COC(C)[C@@H]1CC[C@@H](C)[C@](O)(C(=O)C(=O)N2CCCC[C@H]2C(=O)OCc2ccccc2)C1 (stereo partly specified),81 nM
